Source: the NIST ThermoML archive (doi:10.1021/je900048r)

Assay: xn = mol fraction of the nth substance listed
Conditions: Liquid, Other PVT measurement

CCCCn1cc[n+](C)c1.F[B-](F)(F)F [1-butyl-3-methylimidazolium tetrafluoroborate] + CC#N
mass density [kg/m3]
Conditions	x1 = 0.1	x1 = 0.2	x1 = 0.3	x1 = 0.4	x1 = 0.5	x1 = 0.6	x1 = 0.6999	x1 = 0.7998	x1 = 0.8993	x1 = 1
313.15 K, 200 kPa	893	980	1040	1077	1105	1127	1146	1161	1175	1185
313.15 K, 600 kPa	894	981	1041	1078	1106	1127	1147	1162	1175	1186
313.15 K, 1000 kPa	895	982	1041	1078	1106	1128	1147	1162	1175	1186
313.15 K, 1400 kPa	895	982	1041	1079	1106	1128	1147	1162	1175	1186
313.15 K, 1800 kPa	895	983	1041	1079	1106	1128	1147	1163	1176	1187
313.15 K, 2000 kPa	896	983	1042	1079	1107	1129	1148	1163	1176	1187
353.15 K, 200 kPa	857	947	1008	1047	1076	1098	1118	1134	1148	1159
353.15 K, 600 kPa	858	948	1009	1047	1076	1099	1119	1134	1148	1160
353.15 K, 1000 kPa	858	948	1009	1048	1077	1099	1119	1134	1148	1160
353.15 K, 1400 kPa	858	948	1010	1048	1077	1100	1119	1134	1149	1160
353.15 K, 1800 kPa	859	949	1010	1049	1077	1100	1120	1134	1149	1161
353.15 K, 2000 kPa	859	949	1010	1049	1078	1100	1120	1135	1149	1161
393.15 K, 600 kPa	820	914	978	1018	1048	1072	1092	1108	1123	1135
393.15 K, 1000 kPa	821	915	978	1018	1048	1072	1092	1108	1123	1135
393.15 K, 1400 kPa	821	915	979	1019	1048	1073	1092	1108	1123	1135
393.15 K, 1800 kPa	822	915	979	1019	1049	1073	1093	1108	1123	1136
393.15 K, 2000 kPa	822	916	979	1019	1049	1073	1093	1108	1124	1136
433.15 K, 1000 kPa	781	881	947	989	1021	1045	1066	1082	1098	1112
433.15 K, 1400 kPa	782	882	948	990	1021	1045	1066	1082	1098	1112
433.15 K, 1800 kPa	783	882	948	990	1021	1046	1067	1083	1098	1113
433.15 K, 2000 kPa	783	882	949	990	1021	1046	1067	1083	1099	1113
473.15 K, 1800 kPa	741	847	917	960	993	1018	1040	1057	1072	1086
473.15 K, 2000 kPa	742	848	917	960	993	1019	1041	1057	1073	1087
